Experimental data published in US5470860A, “1,4-dihydropyridines for use in the treatment of dermatoses” (Byk Gulden Lomberg Chemische Fabrik GmbH, priority 1991, dated 1995).

Key:
[1] = tested on: human transformed keratinocytes (HaCat); assay: cells; conditions: 72 h
Protocol: In a second cell reproduction test, human transformed keratinocytes (HaCat) are employed which are cultured in DMEM culture medium with an addition of 10% calf serum. Cells which have grown to confluence beforehand are isolated with trypsin and distributed in 6-well plates in a density of 40×10^3.
The test substance is added 24 h after distribution and after incubation for a further 72 h the cell count is determined using a Coulter counter. Controls are incubated without further additions or with the addition of the solubilizer polyethylene glycol 400 (0.05%).
Evaluation was made in each case for 6 wells/concentration.

human keratinocytes = assay: cells; conditions: Keratinocyte, 264 h, read-out: average inhibitory concentration (IC50)
Protocol: To determine the action, firstly human keratinocytes from the preputial skin of neonates after the 1st passage are distributed in MCDB153 medium in 96-well microtiter plates (2×10^3 cells/well) and the compound given below is added in concentrations of from 10^-10 to 10^-5 M, blank controls containing only the solubilizer DMSO (1%). The period of incubation is 11 days, and after another 2 days in each case there is a change of medium followed by renewed addition of substance.
To determine the rate of cell reproduction, incubation is carried out for 1 h with 4-methylumbelliferyl heptanoate (MUH) according to the method described by R. Stadler et al., Journal of Investigative Dermatology 93, 532-534, 1989, after which the fluorescence intensity is measured using a Titertek Fluoroskan.
4 experiments were carried out, in each case with 4 wells/concentration.

[2] = read-out: % inhibition of growth

- IC50 (human keratinocytes): 88 nM
SMILES: COC(=O)C1=C(C)NC(C)=C(C(=O)OCCCN2CCC(c3ccccc3)(c3ccccc3)CC2)C1c1cccc([N+](=O)[O-])c1 (single isomer, unassigned) [Compound 1, 3-methyl 5-[3-(4,4-diphenyl-1-piperidyl)propyl] (-)-1,4-dihydro-2,6-dimethyl-4-(3-nitrophenyl)pyridine-3,5-dicarboxylate]
- inhibition at 1 µM [1, 2]: 60%
- inhibition at 10 µM [1, 2]: 96%
- IC50 ([1]; read-out: inhibitory concentration (IC50)): 520 nM
